We go through ten compounds from patent publication US9745266B2 (THE REGENTS OF THE UNIVERSITY OF COLORADO, A BODY CORPORATE, priority 2013, dated 2017).

Converted amounts (≈) assume the structure as drawn. Where two headings read alike, the source gives them in different places.

Data set [1] in a line: Mammalian cytotoxicity, CellTiter-Glo viability assay. It counts as cell-based, human. To be noted: human, HeLa cells. The procedure:
To evaluate the cytotoxicity of Of1 in mammalian cells, a cell viability assay was carried out using CellTiter-Glo luminescent cell viability assay kit (Promega). Human cervixcal adenocarcinoma HeLa cells were seeded on white, cell-culture treated 96-well plates (Corning: 3917) with Dulbecco's modified Eagle's medium (DMEM) supplemented with 10% fetal calf serum (FCS), 1% penicillin/streptomycin, at the densities of 20,000 cells/well. The medium volume for each well was 100 μL. Cells were incubated at 37° C. in 5% CO2/95% air for 16 hours. The medium was removed from each well and replaced with 99 μL of warmed fresh medium. To each well, 1 μL of Of1 analog was added in DMSO to final concentrations of 0.5-32 μg/mL. Each series was performed in triplicate. After incubation at 37° C. for another 24 hours, the plates were equilibrated to room temperature for 30 minutes. 100 μL of CellTiter-Glo reagent (Promega) was added to each well and mixed for 2 minutes on an orbital shaker. The plate was incubated at room temperature for another 10 minutes to stabilize luminescent signal. The luminescence of each sample was recorded in an Envision Multilabel Plate Reader (Perkin Elmer).

In data set [2] the test system is MRSA ATCC BAA-44. The data set is described as follows: MIC, CLSI broth microdilution. It counts as cell-based, S. aureus. To be noted: MRSA ATCC BAA-44, compound alone.
The subject of data set [3] is MRSA ATCC BAA-44. The data set is described as follows: MIC in the presence of 20 μM Of1 / alkaloid. Type of data set: cell-based, S. aureus. To be noted: MRSA ATCC BAA-44; for fold of potentiation: MIC / MIC (+20 μM Of1); for MIC (+Of1): in the presence of 20 μM Of1. The procedure:
Indoline alkaloid compounds were then screened for the ability to potentiate the activity of methicillin against MRSA. A multi-drug resistant MRSA strain (ATCC: BAA-44) was selected for the initial screening. […] To each well, 20 μM of each individual indoline alkaloid was added and the plates were incubated at 37° C. for 16 hrs.
The MRSA strain ATCC BAA-44 and the methicillin-sensitive S. aureus (MSSA) strain ATCC 25923 were used to determine the MIC values of various antimicrobial compounds in the presence of 20 μM Of1. The experiment was conducted similarly to the CLSI MIC determination described previously; however, MHB was supplemented with 40 μM Of1 prior to set up and inoculation. The final concentration of Of1 after inoculation with BAA-44 was 20 μM.

Setting [4] is: Staphylococcus aureus, read-out: MIC.

In data set [1], `C=C1CCCC2Nc3c(F)cc(Br)cc3C12CCNS(=O)(=O)c1ccc(Cl)nc1` (centres unmarked) [Cpd 13r, N-[2-(6-bromo-8-fluoro-4-methylidene-2,3,4,4a,9,9a-hexahydro-1H-carbazol-4a-yl)ethyl]-6-chloropyridine-3-sulfonamide] showed a concentration for 50% growth inhibition (GI50) at 24 h of 16.7 µg/mL (≈ 33.3 µM).

As to `C=C1CCCC2Nc3c(F)cc(Br)cc3C12CCNS(=O)(=O)c1cn(C)cn1` (centres unmarked) [Cpd 13s, N-[2-(6-bromo-8-fluoro-4-methylidene-2,3,4,4a,9,9a-hexahydro-1H-carbazol-4a-yl)ethyl]-1-methyl-1H-imidazole-4-sulfonamide], the concentration for 50% growth inhibition (GI50) at 24 h in data set [1] worked out at 23 µg/mL (≈ 49 µM).

In the case of `C=C1CCCC2Nc3c(F)cc(Br)cc3C12CCNS(=O)(=O)c1cc2ccccc2o1` (centres unmarked) [Cpd 13t, N-[2-(6-bromo-8-fluoro-4-methylidene-2,3,4,4a,9,9a-hexahydro-1H-carbazol-4a-yl)ethyl]-1-benzofuran-2-sulfonamide], in data set [1], it took 12.3 µg/mL (≈ 24.3 µM) to inhibit growth by half (GI50 at 24 h). This GI50 at 24 h is about 1.9-fold lower than that of the compound before.

On to `Cc1nnc(SCC2=C(C(=O)O)N3C(=O)[C@@H](NC(=O)Cn4cnnn4)[C@H]3SC2)s1` [cefazolin], for which, in data set [2] (setting [4]), the MIC came to 128 µg/mL (≈ 282 µM). Moreover, in data set [3], the fold of potentiation is on record as 32 and the “MIC (+Of1)” value came out at 4 µg/mL.

As for `CC1=C(C(=O)O)N2C(=O)[C@@H](NC(=O)[C@H](N)c3ccccc3)[C@H]2SC1` [cephalexin], the minimum inhibitory concentration (MIC) in data set [2] (setting [4]) was 256 µg/mL (≈ 737 µM). In data set [3], the fold of potentiation is 16 and the “MIC (+Of1)” value came to 16 µg/mL.

Take `C[C@@H](O)[C@H]1C(=O)N2C(C(=O)O)=C(SCCN=CN)C[C@H]12` [imipenem]: in data set [2] (setting [4]), the MIC amounted to 0.5 µg/mL (≈ 1.67 µM). In data set [3], the fold of potentiation worked out at 8 and the “MIC (+Of1)” value is “.0625 µg/mL”.

On to `COc1cccc(OC)c1C(=O)N[C@@H]1C(=O)N2[C@@H]1SC(C)(C)[C@@H]2C(=O)O` [methicillin], for which the MIC in data set [2] (setting [4]) is 128 µg/mL (≈ 336 µM). Moreover, in data set [3], the fold of potentiation was found to be 16 and the “MIC (+Of1)” value stood at 8 µg/mL.

For the compound `Cc1onc(-c2ccccc2)c1C(=O)N[C@@H]1C(=O)N2[C@@H]1SC(C)(C)[C@@H]2C(=O)O` [oxacillin], the MIC in data set [2] (setting [4]) amounted to 64 µg/mL (≈ 159 µM). Moreover, the “MIC (+Of1)” value in data set [3] is 0.5 µg/mL.

As to `CN(C)[C@@H]1C(O)=C(C(N)=O)C(=O)[C@@]2(O)C(O)=C3C(=O)c4c(O)cccc4[C@@](C)(O)[C@H]3C[C@@H]12` [tetracycline], the minimal inhibitory concentration (MIC) in data set [2] (setting [4]) came out at 64 µg/mL (≈ 144 µM). Further, in data set [3], the fold of potentiation worked out at 1 and the “MIC (+Of1)” value came out at 64 µg/mL.

For amoxicillin/clavulanate, the MIC in data set [2] is reported as 32/16. Further, in data set [3], the fold of potentiation was 8 and the “MIC (+Of1)” value is listed as 4/2.
